In paper PMC7143835, “Anti-Hyperglycemic Effects of Green Crab Hydrolysates Derived by Commercially Available Enzymes” (Foods, 2020):
≈ marks a conversion by molar mass, not a printed value.

Target: T1, rat intestinal α-glucosidase
T1 construct: gene Si; crude buffer extract of rat intestinal acetone powder; mixture of brush-border alpha-glucosidases
Assay: p-nitrophenyl glucopyranoside hydrolysis, absorbance at […] nm
Format: biochemical
Settings: 5 mM p-NPG stock (printed as beta anomer; 50 µL in 200 µL assay), 0.1 M sodium phosphate pH 6.9, 0.9% NaCl, 37 °C, 10 min preincubation; positive control; crude extract

IC50: 27 µg/mL (≈ 41.8 µM)
Compound: C[C@H]1O[C@H](O[C@H]2[C@H](O)[C@@H](O)[C@@H](O[C@H]3[C@H](O)[C@@H](O)C(O)O[C@@H]3CO)O[C@@H]2CO)[C@H](O)[C@@H](O)[C@@H]1N[C@H]1C=C(CO)[C@@H](O)[C@H](O)[C@H]1O (stereo partly shown) [acarbose]
